Numbers after ± are expanded uncertainties.
Conditions: for mass density: 298.15 K, 101.33 kPa, Liquid, Pycnometric method; for Normal melting temperature: Crystal; for Normal melting temperature / Glass transition temperature: DTA

Compound	mass density [kg/m3]	Normal melting temperature [°C]	Glass transition temperature [°C]
CCCCCCCCn1cc[n+](C)c1.N#C[N-]C#N [3-methyl-1-octylimidazolium dicyanamide]	1000 ± 20	-5.00 ± 2	-89.00 ± 2
CCCC[n+]1ccn(C)c1.O=S(=O)([N-]S(=O)(=O)C(F)(F)F)C(F)(F)F		-4.00 ± 2	
CCCC[n+]1ccc(C)cc1.O=S(=O)([O-])C(F)(F)F [1-butyl-4-methylpyridinium trifluoromethanesulfonate]	1170 ± 20	38.00 ± 2	-68.00 ± 2
CCCCCCCCn1cc[n+](C)c1.O=S(=O)([N-]S(=O)(=O)C(F)(F)F)C(F)(F)F	1310 ± 20		-86.00 ± 2
CCCCCCCCn1cc[n+](C)c1.O=S(=O)([O-])C(F)(F)C(F)(F)C(F)(F)C(F)(F)F [1-methyl-3-octylimidazolium perfluorobutanesulfonate]	1330 ± 20	32.00 ± 2	-86.00 ± 2
CCCC[n+]1ccc(C)cc1.O=S(=O)([N-]S(=O)(=O)C(F)(F)F)C(F)(F)F	1350 ± 20	10.00 ± 2	-80.00 ± 2
CCCCn1cc[n+](C)c1.O=S(=O)([O-])C(F)(F)F [1-butyl-3-methylimidazolium trifluoromethanesulfonate]		15.00 ± 2	
CCCC[n+]1ccc(C)cc1.O=S(=O)([O-])C(F)(F)C(F)(F)C(F)(F)C(F)(F)F		70.00 ± 2	-34.00 ± 2
CCCCCCCCn1cc[n+](C)c1.O=S(=O)([O-])C(F)(F)F [1-octyl-3-methylimidazolium trifluoromethanesulfonate]	1120 ± 20	5.00 ± 2	-80.00 ± 2
